# From patent US6737409B2, “Dolastatin 10 derivatives” (Hoffmann-La Roche Inc., priority 2001, dated 2004)
# Tested on: HCT 116
# Assay: Antiproliferative activity assay (WST-8)
# Type: cell-based
# Conditions: Homo sapiens, HCT-116, 96 h, read-out: HCT 116 IC50 (nM)
# Experimental: Antiproliferative activity assay was carried out as follows. A single suspension of tumor cells was inoculated to the serially diluted 96-well microtestplate. Then the testplate was incubated in the 5% CO2 ambience at 37° C. for 4 days (2-3×10^3 cells/well). The degree of cell growth in a monolayer was measured by using WST-8 (Dojindo, Japan). IC50 values of drugs against tumor cells were calculated as the concentration of drug yielding 50% OD of the control growth.
row,SMILES,IC50 [nM]
1,CCNC(=O)Oc1cccc(CCNC(=O)C(C)C(SC)C2CCCN2C(=O)CC(OC)C(C(C)CC)N(C)C(=O)C(NC(=O)C(C(C)C)N(C)C)C(C)C)c1 (stereo not shown) [Ethyl-carbamic acid 3-(2-{3-[1-(4-{[2-(2-dimethylamino-3-methyl-butyrylamino)-3-methyl-butyryl]-methyl-amino}-3-methoxy-5-methyl-heptanoyl)-pyrrolidin-2-yl]-2-methyl-3-methylsulfanyl-propionylamino}-ethyl)-phenyl ester],0.57

# Same assay, conditions: Homo sapiens, HCT-116, 96 h; incubated 4 days, WST-8; concentration of drug yielding 50% OD of the control growth; read-out: HCT 116 IC50
row,SMILES,IC50 [nM]
1,CCC(C)C(C(CC(=O)N1CCCC1C(CC(=O)NCCc1ccccc1)SCCOC(C)=O)OC)N(C)C(=O)C(NC(=O)C(C(C)C)N(C)C)C(C)C (stereo not shown) [Acetic acid 2-{1-[1-(4-{[2-(2-dimethylamino-3-methyl-butyrylamino)-3-methyl-butyryl]-methyl-amino}-3-methoxy-5-methyl-heptanoyl)-pyrrolidin-2-yl]-2-phenethylcarbamoyl-ethylsulfanyl}-ethyl ester],0.19
2,CCNC(=O)OCCSC(CC(=O)NCCc1ccccc1)C1CCCN1C(=O)CC(OC)C(C(C)CC)N(C)C(=O)C(NC(=O)C(C(C)C)N(C)C)C(C)C (stereo not shown) [Ethyl-carbamic acid 2-{1-[1-(4-{[2-(2-dimethylamino-3-methyl-butyrylamino)-3-methyl-butyryl]-methyl-amino}-3-methoxy-5-methyl-heptanoyl)-pyrrolidin-2-yl]-2-phenethylcarbamoyl-ethylsulfanyl}-ethyl ester],0.97
3,CCC(C)C(C(CC(=O)N1CCCC1C(CC(=O)NCCc1cccc(O)c1)SCC(=O)N(C)C)OC)N(C)C(=O)C(NC(=O)C(C(C)C)N(C)C)C(C)C (stereo not shown) [N-(1-{[1-sec-Butyl-4-(2-{1-dimethylcarbamoylmethylsulfanyl-2-[2-(3-hydroxy-phenyl)-ethylcarbamoyl]-ethyl}-pyrrolidin-1-yl)-2-methoxy-4-oxo-butyl]-methyl-carbamoyl}-2-methyl-propyl)-2-dimethylamino-3-methyl-butyramide],1.8
4,CCC(C)C(C(CC(=O)N1CCCC1C(CC(=O)NCCc1ccccc1O)SC)OC)N(C)C(=O)C(NC(=O)C(C(C)C)N(C)C)C(C)C (stereo not shown) [N-(1-{[1-sec-Butyl-4-(2-{2-[2-(2-hydroxy-phenyl)-ethylcarbamoyl]-1-methylsulfanyl-ethyl}-pyrrolidin-1-yl)-2-methoxy-4-oxo-butyl]-methyl-carbamoyl}-2-methyl-propyl)-2-dimethylamino-3-methyl-butyramide],0.64
5,"CCC(C)C(C(CC(=O)N1CCCC1C(CC(=O)NCCc1ccc(OC)c(OC)c1)SC)OC)N(C)C(=O)C(NC(=O)C(C(C)C)N(C)C)C(C)C (stereo not shown) [N-(1-{[1-sec-Butyl-4-(2-{2-[2-(3,4-dimethoxy-phenyl)-ethylcarbamoyl]-1-methylsulfanyl-ethyl}-pyrrolidin-1-yl)-2-methoxy-4-oxo-butyl]-methyl-carbamoyl}-2-methyl-propyl)-2-dimethylamino-3-methyl-butyramide]",0.91
6,CCC(C)C(C(CC(=O)N1CCCC1C(CC(=O)NCCc1cccc(O)c1)SC)OC)N(C)C(=O)C(NC(=O)C(C(C)C)N(C)C)C(C)C (stereo not shown) [N-(1-{[1-sec-Butyl-4-(2-{2-[2-(3-hydroxy-phenyl)-ethylcarbamoyl]-1-methylsulfanyl-ethyl}-pyrrolidin-1-yl)-2-methoxy-4-oxo-butyl]-methyl-carbamoyl}-2-methyl-propyl)-2-dimethylamino-3-methyl-butyramide],0.26
7,CCC(C)C(C(CC(=O)N1CCCC1C(CC(=O)NCCc1ccc(O)cc1)SC)OC)N(C)C(=O)C(NC(=O)C(C(C)C)N(C)C)C(C)C (stereo not shown) [N-(1-{[1-sec-Butyl-4-(2-{2-[2-(4-hydroxy-phenyl)-ethylcarbamoyl]-1-methylsulfanyl-ethyl}-pyrrolidin-1-yl)-2-methoxy-4-oxo-butyl]-methyl-carbamoyl}-2-methyl-propyl)-2-dimethylamino-3-methyl-butyramide],0.6
8,CCC(C)C(C(CC(=O)N1CCCC1C(SC)C(C)C(=O)NCCc1ccccc1)OC)N(C)C(=O)C(NC(=O)C(C(C)C)N(C)C)C(C)C (stereo not shown) [N-[1-({1-sec-Butyl-2-methoxy-4-[2-(1-methylsulfanyl-2-phenethylcarbamoyl-propyl)-pyrrolidin-1-yl]-4-oxo-butyl}-methyl-carbamoyl)-2-methyl-propyl]-2-dimethylamino-3-methyl-butyramide],0.04
9,CCCCCSC(CC(=O)NCCc1ccccc1)C1CCCN1C(=O)CC(OC)C(C(C)CC)N(C)C(=O)C(NC(=O)C(C(C)C)N(C)C)C(C)C (stereo not shown) [N-[1-({1-sec-Butyl-2-methoxy-4-oxo-4-[2-(1-pentylsulfanyl-2-phenethylcarbamoyl-ethyl)-pyrrolidin-1-yl]-butyl}-methyl-carbamoyl)-2-methyl-propyl]-2-dimethylamino-3-methyl-butyramide],0.75
10,CCC(C)C(C(CC(=O)N1CCCC1C(CC(=O)NCCc1ccccc1)Sc1ccccc1)OC)N(C)C(=O)C(NC(=O)C(C(C)C)N(C)C)C(C)C (stereo not shown) [N-[1-({1-sec-Butyl-2-methoxy-4-oxo-4-[2-(2-phenethylcarbamoyl-1-phenylsulfanyl-ethyl)-pyrrolidin-1-yl]-butyl}-methyl-carbamoyl)-2-methyl-propyl]-2-dimethylamino-3-methyl-butyramide],0.33
11,CCC(C)C(C(CC(=O)N1CCCC1[C@@H](CC(=O)NCCc1ccccc1)SC(C)(C)C)OC)N(C)C(=O)C(NC(=O)C(C(C)C)N(C)C)C(C)C (stereo partly drawn) [N-[1-({1-sec-Butyl-4-[2-(1-(R)-tert-butylsulfanyl-2-phenethylcarbamoyl-ethyl)-pyrrolidin-1-yl]-2-methoxy-4-oxo-butyl}-methyl-carbamoyl)-2-methyl-propyl]-2-dimethylamino-3-methyl-butyramide],0.04
12,CCSC(CC(=O)NCCc1ccccc1)C1CCCN1C(=O)CC(OC)C(C(C)CC)N(C)C(=O)C(NC(=O)C(C(C)C)N(C)C)C(C)C (stereo not shown) [N-[1-({1-sec-Butyl-4-[2-(1-ethylsulfanyl-2-phenethylcarbamoyl-ethyl)-pyrrolidin-1-yl]-2-methoxy-4-oxo-butyl}-methyl-carbamoyl)-2-methyl-propyl]-2-dimethylamino-3-methyl-butyramide],0.78
13,CCSC(CC(=O)NCCc1ccccc1)C1CCCN1C(=O)CC(OC)C(C(C)CC)N(C)C(=O)C(NC(=O)C(NC)C(C)C)C(C)C (stereo not shown) [N-[1-({1-sec-Butyl-4-[2-(1-ethylsulfanyl-2-phenethylcarbamoyl-ethyl)-pyrrolidin-1-yl]-2-methoxy-4-oxo-butyl}-methyl-carbamoyl)-2-methyl-propyl]-3-methyl-2-methylamino-butyramide],0.5
14,CCC(C)C(C(CC(=O)N1CCCC1C(CC(=O)NCCc1ccccc1)S(C)(=O)=O)OC)N(C)C(=O)C(NC(=O)C(C(C)C)N(C)C)C(C)C (stereo not shown) [N-[1-({1-sec-Butyl-4-[2-(1-methanesulfonyl-2-phenethylcarbamoyl-ethyl)-pyrrolidin-1-yl]-2-methoxy-4-oxo-butyl}-methyl-carbamoyl)-2-methyl-propyl]-2-dimethylamino-3-methyl-butyramide],0.44
15,CCC(C)C(C(CC(=O)N1CCCC1C(CC(=O)NCCc1ccccc1)SC(C)(C)C)OC)N(C)C(=O)C(NC(=O)C(C(C)C)N(C)C)C(C)C (stereo not shown) [N-[1-({1-sec-Butyl-4-[2-(1-tert-butylsulfanyl-2-phenethylcarbamoyl-ethyl)-pyrrolidin-1-yl]-2-methoxy-4-oxo-butyl}-methyl-carbamoyl)-2-methyl-propyl]-2-dimethylamino-3-methyl-butyramide],0.17
